In brackets after ≈: the same amount, converted by molar mass. Starred links: 1 amine or outer side, 2 acyl side, 3 side chain; linkers in the order of their positions; H or OH if unused. Positions of bridges follow the written chain, without caps; N, C: chain ends. Residues, ends and D or L forms follow the SMILES beside them. Biphenyl(4,4'-CH2)2 = c1cc(-c2ccc(C[*:2])cc2)ccc1C[*:1]; mXylylene = c1cc(C[*:1])cc(C[*:2])c1; pXylylene = c1cc(C[*:2])ccc1C[*:1]; X1 = C(=CC[*:2])C[*:1]
Key:
[1] = 90 minute cytotoxicity assay (LDH release), renal toxicity; assay type: cell-based
Source text: In some embodiments, a peptide provided herein has renal toxicity that is at least 10% (e.g., at least 15%, at least 20%, at least 25%, at least 30%, at least 35%, at least 40%, at least 45%, at least 50%, at least 55%, at least 60%, at least 65%, at least 65%, at least 70%, at least 75%, at least 80%, at least 85%, at least 90%, at least 95%, at least 99%) lower than the renal toxicity of the reference. The renal toxicity of a peptide can be measured in vitro using a renal proximal tubule epithelial cell (RPTEC) renal toxicity assay.
Cell culture: RPTEC were maintained in MEM media supplemented with growth factors. HEPG2 cell line was maintained in Eagle's Minimum Essential Medium (EMEM) supplemented with fetal bovine serum to a final concentration of 10%.
90 minute cytotoxicity assay: Cells were plated in a 96-well format, and after overnight incubation, media was replaced with fresh media. Serial dilutions of StAMPs from a 5 mg/mL water stock, or vehicle, were added to the cells in a final volume of 100 μl. After incubating at 37° C. for 90 min, 50 μl of cell culture media was transferred to a clear 96-well plate, incubated with 50 μl of lactate dehydrogenase (LDH) assay reagent for 10 min, and absorbance measured at 490 nm on a microplate reader.
Renal toxicity was measured after 90 minutes of incubation, while liver toxicity was measured after 48 hours of incubation with StAMPs. N/A=not tested.

[2] = 48 hours cytotoxicity assay (CellTiter-Glo), liver toxicity; assay type: cell-based, human
How it was run: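 Viability from CellTiter-Glo luminescence after StAMP dilution series or vehicle acted on HepG2 cells for 48 h at 37 °C. Cells were grown in EMEM plus 10% FBS and given 4 h to attach before dosing.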

Compound: CC[C@H](C)[C@H](NC(=O)[C@H](CC(C)C)NC(=O)[C@H](CC(C)C)NC(=O)[C@H](CC(N)=O)NC(=O)[C@H](CCCCN)NC(=O)[C@@H](NC(=O)[C@H](CCCCN)NC(=O)[C@H](CCCCN)NC(=O)CNC(=O)[C@H](C)NC(=O)[C@H](CC(C)C)NC(=O)[C@@H]1CSCC=CCSC[C@H](N)C(=O)N[C@@H]([C@@H](C)CC)C(=O)N[C@@H](Cc2ccccc2)C(=O)N[C@@H](CO)C(=O)N1)[C@@H](C)CC)C(=O)N[C@@H](CO)C(=O)NCC(=O)N[C@@H](CC(C)C)C(=O)N[C@@H](CCCCN)C(=O)NCC(N)=O [compound 38] (H-CIFSCLAGKKIKNLLISGLKG-NH2; linker 1-5 via X1; N-terminus assumed)
- IC50 [1]: > 200 µg/mL
- IC50 [2]: > 200 µg/mL

Compound: CC[C@H](C)[C@H](NC(=O)CN)C(=O)N[C@H]1CSCc2cccc(c2)CSC[C@@H](C(=O)NCC(=O)N[C@@H](CCCCN)C(=O)N[C@@H](CCCCN)C(=O)N[C@H](C(=O)N[C@@H](CCCCN)C(=O)N[C@@H](CC(N)=O)C(=O)N[C@@H](CC(C)C)C(=O)N[C@@H](CC(C)C)C(=O)N[C@H](C(=O)N[C@@H](CO)C(=O)NCC(=O)N[C@@H](CC(C)C)C(=O)N[C@@H](CCCCN)C(=O)NCC(N)=O)[C@@H](C)CC)[C@@H](C)CC)NC(=O)[C@H](CC(C)C)NC(=O)[C@H](CCCCN)NC(=O)[C@H](CO)NC1=O [compound 39] (H-GICSKLCGKKIKNLLISGLKG-NH2; linker 3-7 via mXylylene)
- IC50 [1]: 113 µg/mL (≈ 49.7 µM)
- IC50 [2]: 103 µg/mL (≈ 45.3 µM)

Compound: CC[C@H](C)[C@H](NC(=O)CN)C(=O)N[C@H]1CSCc2ccc(cc2)CSC[C@@H](C(=O)NCC(=O)N[C@@H](CCCCN)C(=O)N[C@@H](CCCCN)C(=O)N[C@H](C(=O)N[C@@H](CCCCN)C(=O)N[C@@H](CC(N)=O)C(=O)N[C@@H](CC(C)C)C(=O)N[C@@H](CC(C)C)C(=O)N[C@H](C(=O)N[C@@H](CO)C(=O)NCC(=O)N[C@@H](CC(C)C)C(=O)N[C@@H](CCCCN)C(=O)NCC(N)=O)[C@@H](C)CC)[C@@H](C)CC)NC(=O)[C@H](CC(C)C)NC(=O)[C@H](CCCCN)NC(=O)[C@H](CO)NC1=O [compound 40] (H-GICSKLCGKKIKNLLISGLKG-NH2; linker 3-7 via pXylylene; N-terminus assumed)
- IC50 [1]: 117 µg/mL (≈ 51.4 µM)
- IC50 [2]: 124 µg/mL (≈ 54.5 µM)

Compound: CC[C@H](C)[C@H](NC(=O)CN)C(=O)N[C@@H](Cc1ccccc1)C(=O)N[C@@H](CO)C(=O)N[C@@H](CCCCN)C(=O)N[C@H]1CSCc2cccc(c2)CSC[C@@H](C(=O)N[C@H](C(=O)N[C@@H](CCCCN)C(=O)N[C@@H](CC(N)=O)C(=O)N[C@@H](CC(C)C)C(=O)N[C@@H](CC(C)C)C(=O)N[C@H](C(=O)N[C@@H](CO)C(=O)NCC(=O)N[C@@H](CC(C)C)C(=O)N[C@@H](CCCCN)C(=O)NCC(N)=O)[C@@H](C)CC)[C@@H](C)CC)NC(=O)[C@H](CCCCN)NC(=O)CNC(=O)[C@H](C)NC1=O [compound 41] (H-GIFSKCAGKCIKNLLISGLKG-NH2; linker 6-10 via mXylylene; N-terminus assumed)
- IC50 [1]: 58 µg/mL (≈ 25.8 µM)
- IC50 [2]: 21 µg/mL (≈ 9.33 µM)

Compound: CC[C@H](C)[C@H](NC(=O)CN)C(=O)N[C@@H](Cc1ccccc1)C(=O)N[C@@H](CO)C(=O)N[C@@H](CCCCN)C(=O)N[C@@H](CC(C)C)C(=O)N[C@@H](C)C(=O)NCC(=O)N[C@H]1CSCc2cccc(c2)CSC[C@@H](C(=O)N[C@@H](CC(C)C)C(=O)N[C@@H](CC(C)C)C(=O)N[C@H](C(=O)N[C@@H](CO)C(=O)NCC(=O)N[C@@H](CC(C)C)C(=O)N[C@@H](CCCCN)C(=O)NCC(N)=O)[C@@H](C)CC)NC(=O)[C@H](CCCCN)NC(=O)[C@H]([C@@H](C)CC)NC(=O)[C@H](CCCCN)NC1=O [compound 42] (H-GIFSKLAGCKIKCLLISGLKG-NH2; linker 9-13 via mXylylene; N-terminus assumed)
- IC50 [1]: > 200 µg/mL
- IC50 [2]: > 200 µg/mL

Compound: CC[C@H](C)[C@H](NC(=O)CN)C(=O)N[C@@H](Cc1ccccc1)C(=O)N[C@@H](CO)C(=O)N[C@@H](CCCCN)C(=O)N[C@@H](CC(C)C)C(=O)N[C@@H](C)C(=O)NCC(=O)N[C@H]1CSCC=CCSC[C@@H](C(=O)N[C@@H](CC(C)C)C(=O)N[C@@H](CC(C)C)C(=O)N[C@H](C(=O)N[C@@H](CO)C(=O)NCC(=O)N[C@@H](CC(C)C)C(=O)N[C@@H](CCCCN)C(=O)NCC(N)=O)[C@@H](C)CC)NC(=O)[C@H](CCCCN)NC(=O)[C@H]([C@@H](C)CC)NC(=O)[C@H](CCCCN)NC1=O [compound 43] (H-GIFSKLAGCKIKCLLISGLKG-NH2; linker 9-13 via X1; N-terminus assumed)
- IC50 [1]: > 200 µg/mL
- IC50 [2]: > 200 µg/mL

Compound: CC[C@H](C)[C@H](NC(=O)CN)C(=O)N[C@@H](Cc1ccccc1)C(=O)N[C@@H](CO)C(=O)N[C@@H](CCCCN)C(=O)N[C@@H](CC(C)C)C(=O)N[C@@H](C)C(=O)NCC(=O)N[C@@H](CCCCN)C(=O)N[C@@H](CCCCN)C(=O)N[C@H](C(=O)N[C@@H](CCCCN)C(=O)N[C@@H](CC(N)=O)C(=O)N[C@@H](CC(C)C)C(=O)N[C@@H](CC(C)C)C(=O)N[C@H](C(=O)N[C@H]1CSCc2cccc(c2)CSC[C@@H](C(N)=O)NC(=O)[C@H](CCCCN)NC(=O)[C@H](CC(C)C)NC(=O)CNC1=O)[C@@H](C)CC)[C@@H](C)CC [compound 44] (H-GIFSKLAGKKIKNLLICGLKC-NH2; linker 17-21 via mXylylene; N-terminus assumed)
- IC50 [1]: 86 µg/mL (≈ 36.6 µM)
- IC50 [2]: 48 µg/mL (≈ 20.4 µM)

Compound: CC[C@H](C)[C@H](NC(=O)CN)C(=O)N[C@@H](Cc1ccccc1)C(=O)N[C@@H](CO)C(=O)N[C@@H](CCCCN)C(=O)N[C@@H](CC(C)C)C(=O)N[C@@H](C)C(=O)NCC(=O)N[C@@H](CCCCN)C(=O)N[C@@H](CCCCN)C(=O)N[C@H](C(=O)N[C@@H](CCCCN)C(=O)N[C@@H](CC(N)=O)C(=O)N[C@@H](CC(C)C)C(=O)N[C@@H](CC(C)C)C(=O)N[C@H](C(=O)N[C@H]1CSCc2ccc(cc2)CSC[C@@H](C(N)=O)NC(=O)[C@H](CCCCN)NC(=O)[C@H](CC(C)C)NC(=O)CNC1=O)[C@@H](C)CC)[C@@H](C)CC [compound 45] (H-GIFSKLAGKKIKNLLICGLKC-NH2; linker 17-21 via pXylylene; N-terminus assumed)
- IC50 [1]: 105 µg/mL (≈ 44.7 µM)
- IC50 [2]: 83 µg/mL (≈ 35.3 µM)

Compound: CC[C@H](C)[C@H](NC(=O)[C@H](CC(C)C)NC(=O)[C@H](CC(C)C)NC(=O)[C@H](CC(N)=O)NC(=O)[C@H](CCCCN)NC(=O)[C@@H](NC(=O)[C@H](CCCCN)NC(=O)[C@@H]1CSCc2ccc(cc2)-c2ccc(cc2)CSC[C@H](NC(=O)CN)C(=O)N[C@@H](Cc2ccccc2)C(=O)N[C@@H](CO)C(=O)N[C@@H](CCCCN)C(=O)N[C@@H](CC(C)C)C(=O)N[C@@H](C)C(=O)NCC(=O)N1)[C@@H](C)CC)C(=O)N[C@@H](CO)C(=O)NCC(=O)N[C@@H](CC(C)C)C(=O)N[C@@H](CCCCN)C(=O)NCC(N)=O [compound 53] (H-GCFSKLAGCKIKNLLISGLKG-NH2; linker 2-9 via Biphenyl(4,4'-CH2)2; N-terminus assumed)
- IC50 [1]: 40 µg/mL (≈ 17.2 µM)
- IC50 [2]: 78 µg/mL (≈ 33.5 µM)

Compound: CC[C@H](C)[C@H](NC(=O)CN)C(=O)N[C@H]1CSCc2ccc(cc2)-c2ccc(cc2)CSC[C@@H](C(=O)N[C@H](C(=O)N[C@@H](CCCCN)C(=O)N[C@@H](CC(N)=O)C(=O)N[C@@H](CC(C)C)C(=O)N[C@@H](CC(C)C)C(=O)N[C@H](C(=O)N[C@@H](CO)C(=O)NCC(=O)N[C@@H](CC(C)C)C(=O)N[C@@H](CCCCN)C(=O)NCC(N)=O)[C@@H](C)CC)[C@@H](C)CC)NC(=O)[C@H](CCCCN)NC(=O)CNC(=O)[C@H](C)NC(=O)[C@H](CC(C)C)NC(=O)[C@H](CCCCN)NC(=O)[C@H](CO)NC1=O [compound 56] (H-GICSKLAGKCIKNLLISGLKG-NH2; linker 3-10 via Biphenyl(4,4'-CH2)2; N-terminus assumed)
- IC50 [1]: 17 µg/mL (≈ 7.41 µM)
- IC50 [2]: 34 µg/mL (≈ 14.8 µM)

Compound: CC[C@H](C)[C@H](NC(=O)CN)C(=O)N[C@@H](Cc1ccccc1)C(=O)N[C@@H](CO)C(=O)N[C@@H](CCCCN)C(=O)N[C@H]1CSCc2ccc(cc2)-c2ccc(cc2)CSC[C@@H](C(=O)N[C@@H](CC(C)C)C(=O)N[C@@H](CC(C)C)C(=O)N[C@H](C(=O)N[C@@H](CO)C(=O)NCC(=O)N[C@@H](CC(C)C)C(=O)N[C@@H](CCCCN)C(=O)NCC(N)=O)[C@@H](C)CC)NC(=O)[C@H](CCCCN)NC(=O)[C@H]([C@@H](C)CC)NC(=O)[C@H](CCCCN)NC(=O)[C@H](CCCCN)NC(=O)CNC(=O)[C@H](C)NC1=O [compound 65] (H-GIFSKCAGKKIKCLLISGLKG-NH2; linker 6-13 via Biphenyl(4,4'-CH2)2; N-terminus assumed)
- IC50 [1]: 15 µg/mL (≈ 6.4 µM)
- IC50 [2]: 13 µg/mL (≈ 5.55 µM)

Compound: CC[C@H](C)[C@H](NC(=O)CN)C(=O)N[C@@H](Cc1ccccc1)C(=O)N[C@@H](CO)C(=O)N[C@@H](CCCCN)C(=O)N[C@@H](CC(C)C)C(=O)N[C@H]1CSCc2ccc(cc2)-c2ccc(cc2)CSC[C@@H](C(=O)N[C@@H](CC(C)C)C(=O)N[C@H](C(=O)N[C@@H](CO)C(=O)NCC(=O)N[C@@H](CC(C)C)C(=O)N[C@@H](CCCCN)C(=O)NCC(N)=O)[C@@H](C)CC)NC(=O)[C@H](CC(N)=O)NC(=O)[C@H](CCCCN)NC(=O)[C@H]([C@@H](C)CC)NC(=O)[C@H](CCCCN)NC(=O)[C@H](CCCCN)NC(=O)CNC1=O [compound 88] (H-GIFSKLCGKKIKNCLISGLKG-NH2; linker 7-14 via Biphenyl(4,4'-CH2)2; N-terminus assumed)
- IC50 [1]: 13 µg/mL (≈ 5.45 µM)
- IC50 [2]: 15 µg/mL (≈ 6.29 µM)

Source: patent US20240391965A1, “STAPLED ANTIMICROBIAL PEPTIDES (STAMPS) AND USES THEREOF” (Lytica Therapeutics, Inc., priority 2021, published 2024)
